Assays:
W-Pro21717 [1] = experiment: Effect of protease inhibitors on W-Pro21717 activity; format: biochemical, Pseudoalteromonas arctica PAMC 21717; settings: result in words
Method: (§1) The reaction solution was centrifuged, and then filtered through a filter having a pore size of 0.45 μm, and the filtrate was mixed and reacted with Folin & Ciocalteu's phenol solution and 500 mM sodium carbonate solution at 37° C. for 30 minutes. Next, the enzymatic activity of the reaction product was measured at 660 nm based on an L-tyrosine standard curve, and an amino acid production of 1 nmole/min/mg at 25° C. was defined as the activity of 1 unit of protease.
The kind of W-Pro21717 was analyzed by reactions with various protease inhibitors.

W-Pro21717 [2] = experiment: Activity and stability of W-Pro21717 in the presence of metal ions and surfactants; format: biochemical, Pseudoalteromonas arctica PAMC 21717; settings: 1 mM, on ice for 1 hour, FIG. 3; for influence on the activity of W-Pro21717: result in words
Method: In order to analyze the influence of metal ions and detergents, W-[…] was allowed to react with a standard buffer containing 1 mM BaCl2, CuSO4, MgSO4, CaCl2, ZnSO4, FePO4, KCl, NaCl, […], sodium linear alkylbenzene sulfonate (LAS) or SDS on ice for 1 hour. In addition, the compatibility of W-[…] with a commercial detergent (LG Household & Health Care, Korea; containing subtilisin Carlsberg) was analyzed using skim milk at temperatures of 10° C. and 30° C.

azocasein [3] = experiment: Activity and stability of W-Pro21717 with temperature and pH; format: biochemical
Method: as §1, with “In order to measure the degradation activity of W-Pro21717, the cultured PAMC 21717 cells were centrifuged at 4° C. at 12,000×g for 30 minutes, and the supernatant was mixed with 50 mM sodium phosphate buffer (pH 7.6) containing 0.65% azocasein substrate, and was allowed to at 25° C. for 1 hour, and then additionally allowed to react at 37° C. for 1 hour after adding 110 mM trichloroacetic acid thereto. The” for “The”
A temperature optimal for the activity of W-Pro21717 was analyzed in the temperature range of 0 to 60° C., and the optimum pH was analyzed by 1-hour reactions in 50 mM sodium acetate (pH 2.0-6.0), 50 mM potassium phosphate (pH 7.0-10.0) and 50 mM sodium tetraborate (pH 10.0). As a control, 3 μg of the commercial protease Carlsberg subtilisin was used.

[4] = Substrate specificity of W-Pro21717 with synthetic peptides; format: biochemical; settings: 25° C., 10 minutes, 410 nm
Method: The substrate specificity of W-Pro21717 was analyzed using 5 mM of each of the following 7 different synthetic peptides: N-succinyl-Ala-Ala-Val-p-nitroanilide (AAV), N-succinyl-Ala-Ala-Pro-Leu-p-nitroanilide (AAPL), N-succinyl-Ala-Ala-Ala-p-nitroanilide (AAA), N-succinyl-Gly-Gly-Phe-p-nitroanilide (GGF), N-succinyl-Thr-Leu-Val-p-nitroanilide (TLV), N-succinyl-Ala-Ala-Pro-Phe-p-nitroanilide (AAPF), and N-succinyl-Ala-Ala-Val-Ala-p-nitroanilide (AAVA). W-Pro21717 was allowed to react with a standard buffer containing 0.83 mM substrate at 25° C. for 10 minutes, and then the relative activity thereof was measured at 410 nm.

azocasein [5] = experiment: Activity and stability of R-Pro21717 with temperature and pH; format: biochemical
Method: In order to determine a temperature optimal for the activity of the protease, R-Pro21717 was allowed to react at varying temperatures of 0˜70° C., and then analyzed. The stability of R-Pro21717 against temperature was analyzed by allowing R-Pro21717 at varying temperatures of 0˜70° C. for 1 hour, and then allowing R-Pro21717 to react a 0.65% azocasein-containing standard buffer at 30° C. for 30 minutes. As a control enzyme, Carlsberg subtilisin was used.
In order to determine a pH optimal for the activity of the protease, R-Pro21717-containing buffers having varying pHs were allowed to react at 30° C., and then analyzed. The stability of R-Pro21717 against pH was analyzed by allowing R-Pro21717-containing buffers having varying pHs to react on ice for 1 hour, and then reacting R-Pro21717 in 0.65% azocasein-containing standard buffer at 30° C. for 30 minutes. Carlsberg subtilisin was used as a control enzyme and analyzed at a reaction temperature of 40° C.

O=C(O)CN(CCN(CC(=O)O)CC(=O)O)CC(=O)O [EDTA]
effect of inhibitor on the activity of W-Pro21717 (W-Pro21717 [1]): slightly inhibited

O=S(=O)(F)Cc1ccccc1 [PMSF]
effect of inhibitor on the activity of W-Pro21717 (W-Pro21717 [1]): inhibited

O=S(=O)([O-])[O-].[Mg+2] [Mg^2+, MgSO4]
influence on the activity of W-Pro21717 (W-Pro21717 [2]): did not influence

[Fe+2] [Fe^2+, FePO4]
influence on the activity of W-Pro21717 (W-Pro21717 [2]): did not influence

[Cl-].[K+] [K^+, KCl]
influence on the activity of W-Pro21717 (W-Pro21717 [2]): did not influence

O=S(=O)([O-])[O-].[Cu+2] [CuSO4]
increase of the activity of W-Pro21717 (W-Pro21717 [2]): about 60%

[Ca+2].[Cl-].[Cl-] [Ca^2+, CaCl2]
influence on the activity of W-Pro21717 (W-Pro21717 [2]): did not influence

O=S(=O)([O-])[O-].[Zn+2] [Zn^2+, ZnSO4]
influence on the activity of W-Pro21717 (W-Pro21717 [2]): did not influence

[Cl][Hg][Cl] [HgCl2]
effect of inhibitor on the activity of W-Pro21717 (W-Pro21717 [1]): inhibited

[Cl-].[Na+] [Na^2+, NaCl]
influence on the activity of W-Pro21717 (W-Pro21717 [2]): did not influence

[Ba+2].[Cl-].[Cl-] [Ba^2+, BaCl2]
influence on the activity of W-Pro21717 (W-Pro21717 [2]): did not influence

B1: Subtilisin Carlsberg: commercial protease used as control enzyme (protein, UniProt P00780 106-379, looked up)
Subtilisin Carlsberg: AQTVPYGIPLIKADKVQAQGFKGANVKVAVLDTGIQASHPDLNVVGGASFVAGEAYNTDGNGHGTHVAGTVAALDNTTGVLGVAPSVSLYAVKVLNSSGSGSYSGIVSGIEWATTNGMDVINMSLGGASGSTAMKQAVDNAYAKGVVVVAAAGNSGSSGNTNTIGYPAKYDSVIAVGAVDSNSNRASFSSVGAELEVMAPGAGVYSTYPTNTYATLNGTSMASPHVAGAAALILSKHPNLSASQVRNRLSSTATYLGSSFYYGKGLINVEAAAQ
temperature optimal for the activity (azocasein [3]; tested 0 to 60° C., FIG. 2A): 60 °C | decrease in activity after a reaction at 40° C. for 1 hour (azocasein [3]; thermal stability, FIG. 2B): 80% | Relative activity (%) ([4]; substrate AAPF): 100% | Relative activity (%) ([4]; substrate GGF): 0% | temperature at which stability / enzymatic activity decreases (azocasein [5]; 1 hour at temperature, then azocasein 30° C. 30 minutes, FIG. 9B): ≥ 50 °C | pH of highest activity (azocasein [5]; FIG. 9C): same results as those of R-Pro21717 | pH optimal for the stability (azocasein [5]; on ice for 1 hour, FIG. 9D): same results as those of R-Pro21717 | proteolytic activity at low temperature relative to the highest activity (azocasein [5]; printed 'at or'): did not show proteolytic activity | temperature optimal for the activity (azocasein [5]; tested 0˜70° C., FIG. 9A): 60 °C
